According to PubChem BioAssay (NCI):
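Cultured in 96-well plates, cells were exposed to test compound for 48 hours across five concentrations. TGI: concentration producing complete growth inhibition.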

Tests used:
Assay in all cases: DTP human tumour cell line panel, 48 h
[1] = tested on: SNB-75 CNS
[2] = tested on: SK-MEL-28 melanoma
[3] = tested on: ACHN renal
[4] = tested on: BT-549 breast
[5] = tested on: OVCAR-3 ovarian
[6] = tested on: LOX IMVI melanoma
[7] = tested on: OVCAR-8 ovarian
[8] = tested on: MALME-3M melanoma
[9] = tested on: SK-MEL-5 melanoma
[10] = tested on: KM12 colon

Compound | TGI [1] | TGI [2] | TGI [3] | TGI [4] | TGI [5] | TGI [6] | TGI [7] | TGI [8] | TGI [9] | TGI [10]
[O-]/[N+](=C\c1ccccc1OC(=S)S)c1ccc(Cl)cc1 | > 100 µM | > 100 µM | > 100 µM | > 100 µM | > 100 µM | 38.8 µM | 30.2 µM | > 100 µM | > 100 µM | > 100 µM
O=c1cc(-c2cc(O)c(O)c(-c3c(O)cc4oc(-c5ccc(O)c(O)c5)cc(=O)c4c3O)c2)oc2cc(O)cc(O)c12 | > 25 µM | > 25 µM |  | > 25 µM | > 25 µM | > 25 µM | > 25 µM | > 25 µM | > 25 µM | 
N#Cc1c(-c2ccccc2)cc(-c2ccc(Cl)cc2)[nH]c1=S | > 100 µM | 80.1 µM | > 100 µM | > 100 µM | > 100 µM | > 100 µM | > 100 µM | > 100 µM | 39 µM | > 100 µM
CCCCn1c(-c2ccc([N+](=O)[O-])cc2)cs/c1=N/N=C1\C(=O)Nc2ccc(Br)cc21 | 59.8 µM | > 100 µM | 31.5 µM | 51.6 µM | 39.8 µM | 39 µM | > 100 µM | > 100 µM | 27.8 µM | 38.2 µM
COc1ccc(NC(=S)NC(=O)c2ccc3c(c2)Sc2ccccc2O3)c([N+](=O)[O-])c1 | 23.7 µM | > 100 µM | 64.8 µM | 70.5 µM | 58.5 µM | > 100 µM | > 100 µM | 35.7 µM | > 100 µM | > 100 µM
O=C(N/N=C/c1ccc(Br)cc1)N/N=C/c1ccc(Br)cc1 |  | 26.9 µM | 20.8 µM | 52.9 µM | 14.9 µM | > 100 µM | 19.8 µM | 15.6 µM | 31.6 µM | 78.2 µM
COc1ccc(COCC[C@H](C)OC2OC(CO[Si](C)(C)C(C)(C)C)C(OC(=O)CCCN=[N+]=[N-])C(OC(=O)CCCN=[N+]=[N-])C2OC(=O)CCCN=[N+]=[N-])cc1 (some centres undefined) | 59.9 µM | > 100 µM |  | 68.9 µM | > 100 µM | > 100 µM | 75.8 µM | > 100 µM | 25.4 µM | > 100 µM
COC(=O)C1(Cc2ccc3c(c2)CCC3)Cc2ccccc2C1 | > 100 µM | > 100 µM | > 100 µM | > 100 µM | > 100 µM | > 100 µM | > 100 µM | > 100 µM |  | > 100 µM
C\C(=N/N=C1/C(=C\N(C)C)C(=O)NC(=O)N1C)c1ccc(Cl)cc1 | > 100 µM | > 100 µM | > 100 µM | > 100 µM | > 100 µM | > 100 µM | > 100 µM | > 100 µM | > 100 µM | > 100 µM
CCON1CC(C(=O)OC)=C(O)C1=O | > 100 µM | > 100 µM | > 100 µM | > 100 µM | > 100 µM |  | > 100 µM | > 100 µM | > 100 µM | > 100 µM
O=c1cc(-c2ccccc2)oc2c(-c3cc(Cl)cc4c(=O)cc(-c5ccccc5)oc34)cc(Cl)cc12 | 94 µM | > 100 µM | > 100 µM | > 100 µM | 80.5 µM | > 100 µM | > 100 µM | 75.8 µM | 32.8 µM | > 100 µM
CCOC(=O)c1cn2c(n1)sc1cc(Cl)cc(Cl)c12 | > 100 µM | > 100 µM | > 100 µM | > 100 µM | > 100 µM | > 100 µM | > 100 µM | > 100 µM | > 100 µM | > 100 µM
O=c1[nH]c(=O)n(C2CC(O)C(CO)O2)cc1OCc1ccccc1 (centres undefined) | > 100 µM | > 100 µM | > 100 µM | > 100 µM | > 100 µM | > 100 µM | > 100 µM | > 100 µM | > 100 µM | > 100 µM
O=c1[nH]c(Nc2cccc(CO)c2)nc2nc[nH]c12 | > 100 µM | > 100 µM | > 100 µM | > 100 µM | > 100 µM | > 100 µM | > 100 µM | > 100 µM | > 100 µM | > 100 µM
OCc1ccc2c(c1)CC1(Cc3ccc(/C=N/O)cc3C1)C2 (centres undefined) | > 25.5 µM | > 100 µM | > 80.6 µM | > 66.4 µM | 17.1 µM | > 100 µM | 35.2 µM | > 78.8 µM | 8.25 µM | 19.1 µM
Cc1cnc2c(c1)C(=O)C1=C(C2=O)C2OC(=O)CC2OC1(C)C (centres undefined) | 4.1 µM | 2.04 µM | 0.39 µM | 0.363 µM | 0.153 µM |  | 2.19 µM | 0.191 µM | 0.997 µM | 1.73 µM
O=C(Nc1noc(-c2ccccc2)n1)c1ccccc1CNc1noc(-c2ccccc2)n1 | > 100 µM | > 100 µM | > 100 µM | > 100 µM | > 100 µM | > 100 µM | > 100 µM | > 100 µM | > 100 µM | > 100 µM
COc1cc2c(cc1Cc1c(F)cccc1Cl)nc(-c1c(F)cccc1Cl)n2Cc1c(F)cccc1Cl | 70.4 µM | > 100 µM | > 100 µM | > 100 µM | > 100 µM |  | > 100 µM | 79.9 µM | > 100 µM | > 100 µM
C[C@H]1SC(c2ccc(Cl)cc2Cl)N(NC(=O)c2ccncc2)C1=O (some centres undefined) | > 100 µM | > 100 µM | 90.7 µM | > 100 µM | > 100 µM |  | > 100 µM | > 100 µM | 37 µM | > 100 µM
O=C(c1ccncc1)C1C(=O)c2ccccc2C1C1(O)c2ccccc2CC1C(O)c1ccncc1 (centres undefined) | > 100 µM | > 100 µM | > 100 µM | > 100 µM |  | > 100 µM | > 100 µM | > 100 µM | > 100 µM | > 100 µM
CC(=O)OC1C(COC(=O)c2ccccc2)OC(Nc2ncc(-c3ccc(Br)cc3)s2)C(OC(=O)c2ccccc2)C1OC(=O)c1ccccc1 (centres undefined) | > 100 µM | > 100 µM | > 100 µM | > 100 µM | > 100 µM | > 100 µM | > 100 µM | > 100 µM | > 100 µM | 
